Data set [1] has as its system bovine adrenal medullary microvascular endothelial cells. Nature of the data set: Cell viability by trypan blue exclusion. It counts as cell-based. Particulars: under tunicamycin exposure (0.5-5.0 μg/ml, 32 hours). On the procedure: For proliferation assay, cells were trypsinized and counted in a hemacytometer. Viability of cells was determined by trypan blue (0.4% (v/v)) exclusion. Statistical analysis was carried out by StatView II software (Macintosh). Quantitation of cellular differentiation was carried out by observing under a Nikon AlphaShot inverted microscope, and counting the number of capillary lumen-like structures in five randomly selected fields per sample.
Proliferation and Differentiation of Capillary Endothelial Cells: 2.0×10^4 cells were seeded per well in 24-well clusters in 1 ml complete EMEM containing 10% (v/v) serum and allowed to grow for 72 hours. Media were removed and the cells were washed twice with phosphate-buffer saline, pH 7.4 (PBS). […] Cells were routinely monitored by light microscopy. For proliferation assay, cells were trypsinized and counted in a hemacytometer. Viability of cells was determined by trypan blue (0.4% (v/v)) exclusion. […] Quantitation of cellular differentiation was carried out by observing under a Nikon AlphaShot inverted microscope, and counting the number of capillary lumen-like structures in five randomly selected fields per sample. The results were expressed as percent of its corresponding control after normalization of cell numbers. […] After FacSort calibration, 3000 events were counted per sample. […]

The subject of data set [2] is Factor VIII:C. Put plainly: Factor VIII:C level by enzyme-linked immunoassay (ELISA). It counts as cell-based, bovine. Conditions: 1 μg/ml tunicamycin. As to the method: In conducting ELISA, 96-well microtiter EIA plates, available from Corning Inc., Corning, N.Y., were coated overnight at 4° C. with 50 μl mouse monoclonal anti-Factor VIII:C antibody (i.e., IgG1k which is commercially available from Molecular Biochemicals (previously known as “Boehringer-Mannheim”), Indianapolis, Ind. (diluted 1:500) in 100 mM sodium carbonate buffer, pH 9.2. Blank wells were coated similarly with 0.25 μg of bovine serum albumin (BSA). The plates were washed three times 50 μl each wash with 50 mM Tris-HCl, pH 7.5 containing 150 mM NaCl and 0.5% (v/v) Tween-20 (TBST), available from Bio-Rad Laboratories, Richmond, Calif. and incubated at 37° C. for one hour with 50 μl conditioned media or cell lysates. The cell lysates were obtained by incubating for 20 minutes with 1 ml of ice-cold 20 mM TRIS-HCL, pH 8.0 buffer containing 150 mM NaCl, 1% (v/v) NP-40 and 1 μg/ml aprotinin. At the end of the incubation, the plates were washed three times with TBST, as above, and incubated at 37° C. for another hour with 50 μl of 1:500 diluted monoclonal anti-Factor VIII:C antibody. […] The absorbance was read at approximately 405 nm after 30 minutes by using an EIA microplate reader, Model 2550 with a 405 nm filter, both available from Bio-Rad Laboratories, Richmond, Calif. […]
On the technique in general: ELISA stands for enzyme-linked immunosorbent assay.

A value given as a limit tells only on which side of the number the result lay.

On to tunicamycin, for which the “total adherent cells viable” value in data set [1] was “more than 70%”. In addition, the “time from which Factor VIII:C level started increasing” value in data set [2] was ≥ 32 h. For the same substance, the “level of immunopositive Factor VIII:C versus controls” value in data set [2] (conditioned media and cell lysates) is recorded as “high level”.

The values are drawn from US7361643B2, “Methods for inhibiting angiogenesis” (University of Puerto Rico, priority 2000, dated 2008).
